According to PMC11881035, “^68Ga-Labeled Glycopeptides as Effective Tools for Liver Function Imaging” (Molecular Pharmaceutics, 2025):
Read-outs that look alike come from different tables or passages of the source. Where a SMILES comes first, the peptide text is derived from it. The star is where a group is joined. X1 = O=C(CCCCc1cn([C@@H]2O[C@H](CO)[C@H](O)[C@H](O)[C@H]2O)nn1)*; NODAGA = O=C(O)CN1CCN(CC(=O)O)CCN(C(CCC(=O)*)C(=O)O)CC1; GABA = NCCCC(=O)O

What was measured:
complex stability in PBS = format: physicochemical
Protocol: (§1) The ^68Ge/^68Ga generator, devices for analytical HPLC, semipreparative HPLC, mass spectrometry, radio-thin layer chromatography, gamma counter and animal models for biodistribution and imaging studies including the image reconstruction procedures were the same as described before.[22] Stability assays in PBS and human blood serum, protein binding as well as determination of log D values followed established protocols.[25] Binding affinities (IC50) of selected ligands were determined in an isolated receptor-based assay according to a previously published procedure with minor modifications.[22] Dilutions of nonradioactive complexes were made with PBS + 0.1% BSA (10^–5–10^–12 M). Preparation of [^125I]I-Asialoorosomucoid which serves as the radioactive standard ligand has been published recently.[21]

ASGR = biological target: T1, ASGR (Mus musculus, UniProt P24721+P34927); test: blocking experiment, coinjection of N-acetylgalactosamine, biodistribution in BALB/c mice; settings: in vivo, 30 min p.i., 27.7 μmol N-acetylgalactosamine
T1 construct: from tissue; host or cells: liver and other organs of living healthy female BALB/c mice
T1 sequence (P34927 1-284): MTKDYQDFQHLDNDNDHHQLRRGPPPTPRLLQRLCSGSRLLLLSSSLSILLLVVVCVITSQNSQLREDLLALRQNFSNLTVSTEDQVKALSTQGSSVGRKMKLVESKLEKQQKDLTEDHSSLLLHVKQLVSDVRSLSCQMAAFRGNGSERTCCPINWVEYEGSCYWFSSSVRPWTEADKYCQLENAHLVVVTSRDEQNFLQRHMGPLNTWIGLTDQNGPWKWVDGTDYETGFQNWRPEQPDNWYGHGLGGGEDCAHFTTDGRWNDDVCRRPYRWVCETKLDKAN
T1 sequence (P24721 1-301): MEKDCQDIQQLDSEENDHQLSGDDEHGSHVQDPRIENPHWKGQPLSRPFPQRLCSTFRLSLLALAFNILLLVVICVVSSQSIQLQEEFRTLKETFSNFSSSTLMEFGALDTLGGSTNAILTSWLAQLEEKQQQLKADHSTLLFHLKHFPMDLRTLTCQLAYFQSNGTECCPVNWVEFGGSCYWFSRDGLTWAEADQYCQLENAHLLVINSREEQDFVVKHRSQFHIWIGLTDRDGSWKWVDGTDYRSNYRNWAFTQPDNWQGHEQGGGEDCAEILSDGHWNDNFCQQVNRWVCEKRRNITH
Protocol: Less liver uptake was found for [^68Ga]Ga-NODAGA-HexaLysan (55.5 ± 7.4% ID/g, 30 min p.i.) and least for [^68Ga]Ga-NODAGA-TriLysan (9.4 ± 2.0% ID/g, 30 min p.i.). […] However, an increasing activity accumulation in the intestine was found for [^68Ga]Ga-NODAGA-NonaLysan, [^68Ga]Ga-NODAGA-GalNAc-Nonalysan, and [^68Ga]Ga-NODAGA-HexaLysan over time. Nevertheless, liver-to-organ ratios were highest for [^68Ga]Ga-NODAGA-NonaLysan (Figure 3). Lower liver-to-organ ratios were found for the GalNAc derivative due to higher off-target binding in the pancreas, stomach, heart, muscle, lung, and femur. […] Coinjection of both nonamers with a large excess of N-acetylgalactosamine led to a statistically significant reduction of liver uptake indicating specific interactions of the tracers with their target (Figure 4). As a consequence of the reduced liver uptake also a reduction of the intestinal uptake was observed.
Figure 4 Data (% ID/g) from the blocking experiments using ^68Ga-labeled NODAGA-GalNAc-NonaLysan and NODAGA-NonaLysan in healthy BALB/c mice at 30 min p.i. Blocking was carried out using 27.7 μmol of N-acetylgalactosamine (**p ≤ 0.01; *p ≤ 0.05).

[1] = protein binding in human serum; format: in vitro ADME; settings: for fraction unbound: human, serum, read-out: protein binding (%) (converted)
Protocol: as §1

[2] = complex stability in human blood serum; format: in vitro ADME
Protocol: as §1

log D determination = format: physicochemical; settings: read-out: log D
Protocol: as §1

[3] = biodistribution in healthy BALB/c mice; settings: mouse, in vivo; for tissue uptake at 10 min: 10 min p.i.; for tissue uptake at 0.5 h: 30 min p.i.; for tissue uptake at 1 h: 60 min p.i.
Protocol: as §1
Animal experiments were performed in accordance with the Austrian animal experiments law (BGBl. I Nr. 114/2012) and the institution’s animal welfare standards as approved by the Austrian Federal Ministry of Education, Science and Research (BMBWF, 2022–0.311.708). Imaging experiments were conducted at Werner Siemens Imaging Center (Tübingen, Germany) according to the German animal welfare act as approved by the local authorities (R5/19 G, R09/21 G).
Figure 2 Biodistribution data (% ID/g) of ^68Ga-labeled NODAGA-GalNAc-NonaLysan, NODAGA-NonaLysan, NODAGA-HexaLysan, and NODAGA-TriLysan in healthy BALB/c mice at 10, 30, and 60 min p.i. (100 pmol, 1 MBq).

## NC(=O)CNC(=O)CNC(=O)[C@H](CCCCNC(=O)CCCCc1cn([C@@H]2O[C@H](CO)[C@H](O)[C@H](O)[C@H]2O)nn1)NC(=O)CNC(=O)CNC(=O)[C@H](CCCCNC(=O)CCCCc1cn([C@@H]2O[C@H](CO)[C@H](O)[C@H](O)[C@H]2O)nn1)NC(=O)CNC(=O)CNC(=O)[C@H](CCCCNC(=O)CCCCc1cn([C@@H]2O[C@H](CO)[C@H](O)[C@H](O)[C@H]2O)nn1)NC(=O)CNC(=O)CNC(=O)[C@H](CCCCNC(=O)CCCCc1cn([C@@H]2O[C@H](CO)[C@H](O)[C@H](O)[C@H]2O)nn1)NC(=O)CNC(=O)CNC(=O)[C@H](CCCCNC(=O)CCCCc1cn([C@@H]2O[C@H](CO)[C@H](O)[C@H](O)[C@H]2O)nn1)NC(=O)CNC(=O)CNC(=O)[C@H](CCCCNC(=O)CCCCc1cn([C@@H]2O[C@H](CO)[C@H](O)[C@H](O)[C@H]2O)nn1)NC(=O)CNC(=O)CNC(=O)[C@H](CCCCNC(=O)CCCCc1cn([C@@H]2O[C@H](CO)[C@H](O)[C@H](O)[C@H]2O)nn1)NC(=O)CNC(=O)CNC(=O)[C@H](CCCCNC(=O)CCCCc1cn([C@@H]2O[C@H](CO)[C@H](O)[C@H](O)[C@H]2O)nn1)NC(=O)CNC(=O)CNC(=O)[C@H](CCCCNC(=O)CCCCc1cn([C@@H]2O[C@H](CO)[C@H](O)[C@H](O)[C@H]2O)nn1)NC(=O)CCCNC(=O)CCC(C(=O)O)N1CCN(CC(=O)O)CCN(CC(=O)O)CC1 (stereo partly shown) [[^68Ga]Ga-NODAGA-NonaLysan, metal not drawn] ({NODAGA-GABA}-K(X1)GGK(X1)GGK(X1)GGK(X1)GGK(X1)GGK(X1)GGK(X1)GGK(X1)GGK(X1)GG-NH2)
Complex stability in PBS; 2 min
  complex stability in PBS (% intact ligand): 99.6%
Complex stability in PBS; 30 min
  complex stability in PBS (% intact ligand): 99.4%
Complex stability in PBS; 60 min
  complex stability in PBS (% intact ligand): 99.3%
Complex stability in PBS; 120 min
  complex stability in PBS (% intact ligand): 99.3%
ASGR; read-out: Blood uptake
  tissue uptake at 0.5 h: 0.3 ± 0.2 %ID/g
ASGR; read-out: Femur uptake
  tissue uptake at 0.5 h: 0.2 ± 0.01 %ID/g
ASGR; read-out: Heart uptake
  tissue uptake at 0.5 h: 0.3 ± 0.03 %ID/g
ASGR; read-out: Intestine uptake
  tissue uptake at 0.5 h: 2.2 ± 0.2 %ID/g
ASGR; read-out: Kidneys uptake
  tissue uptake at 0.5 h: 2 ± 0.8 %ID/g
ASGR; read-out: Liver uptake
  tissue uptake at 0.5 h: 48 ± 1.1 %ID/g
ASGR; read-out: Lung uptake
  tissue uptake at 0.5 h: 0.6 ± 0.1 %ID/g
ASGR; read-out: Muscle uptake
  tissue uptake at 0.5 h: 0.4 ± 0.04 %ID/g
ASGR; read-out: Pancreas uptake
  tissue uptake at 0.5 h: 0.5 ± 0.1 %ID/g
ASGR; read-out: Spleen uptake
  tissue uptake at 0.5 h: 0.3 ± 0.2 %ID/g
ASGR; read-out: Stomach uptake
  tissue uptake at 0.5 h: 0.9 ± 0.3 %ID/g
[1]; 120 min
  protein binding (%): 21.5 ± 3.4%
  fraction unbound: 0.813
[1]; 2 min
  fraction unbound: 0.847
[1]; 30 min
  fraction unbound: 0.717
[1]; 60 min
  fraction unbound: 0.737
[2]; 2 min
  complex stability in serum (% intact ligand): 99.5 ± 0.1%
[2]; 30 min
  complex stability in serum (% intact ligand): 99.5 ± 0.1%
[2]; 60 min
  complex stability in serum (% intact ligand): 99.5 ± 0.1%
[2]; 120 min
  complex stability in serum (% intact ligand): 99.6%
Log D determination
  logD: -4.06
[3]; read-out: Blood uptake
  tissue uptake at 10 min: 0.4 ± 0.03 %ID/g
  tissue uptake at 0.5 h: 0.2 ± 0.04 %ID/g
  tissue uptake at 1 h: 0.2 ± 0.1 %ID/g
[3]; read-out: Femur uptake
  tissue uptake at 10 min: 0.3 ± 0.02 %ID/g
  tissue uptake at 0.5 h: 0.3 ± 0.1 %ID/g
  tissue uptake at 1 h: 0.2 ± 0.01 %ID/g
[3]; read-out: Heart uptake
  tissue uptake at 10 min: 0.4 ± 0.04 %ID/g
  tissue uptake at 0.5 h: 0.4 ± 0.04 %ID/g
  tissue uptake at 1 h: 0.5 ± 0.1 %ID/g
[3]; read-out: Intestine uptake
  tissue uptake at 10 min: 0.8 ± 0.2 %ID/g
  tissue uptake at 0.5 h: 5.6 ± 0.2 %ID/g
  tissue uptake at 1 h: 7.9 ± 0.5 %ID/g
[3]; read-out: Kidneys uptake
  tissue uptake at 10 min: 1.2 ± 0.1 %ID/g
  tissue uptake at 0.5 h: 0.8 ± 0.03 %ID/g
  tissue uptake at 1 h: 1 ± 0.2 %ID/g
[3]; read-out: Liver uptake
  tissue uptake at 10 min: 71.2 ± 0.4 %ID/g
  tissue uptake at 0.5 h: 79.6 ± 8 %ID/g
  tissue uptake at 1 h: 69.6 ± 1 %ID/g
[3]; read-out: Lung uptake
  tissue uptake at 10 min: 0.9 ± 0.1 %ID/g
  tissue uptake at 0.5 h: 0.7 ± 0.1 %ID/g
  tissue uptake at 1 h: 0.9 ± 0.1 %ID/g
[3]; read-out: Muscle uptake
  tissue uptake at 10 min: 0.6 ± 0.1 %ID/g
  tissue uptake at 0.5 h: 0.7 ± 0.03 %ID/g
  tissue uptake at 1 h: 0.6 ± 0.1 %ID/g
[3]; read-out: Pancreas uptake
  tissue uptake at 10 min: 0.8 ± 0.1 %ID/g
  tissue uptake at 0.5 h: 0.9 ± 0.1 %ID/g
  tissue uptake at 1 h: 1.2 ± 0.2 %ID/g
[3]; read-out: Spleen uptake
  tissue uptake at 10 min: 0.6 ± 0.2 %ID/g
  tissue uptake at 0.5 h: 0.2 ± 0.03 %ID/g
  tissue uptake at 1 h: 0.5 ± 0.03 %ID/g
[3]; read-out: Stomach uptake
  tissue uptake at 10 min: 0.7 ± 0.2 %ID/g
  tissue uptake at 0.5 h: 1.2 ± 0.4 %ID/g
  tissue uptake at 1 h: 1.8 ± 1 %ID/g
